These are literature values, as cited in patent US20080207601A1, “Methods of and Compositions For the Prevention of Anxiety, Substance Abuse, and Dependence” (Hythiam , Inc., priority 2005, published 2008).

The test system of one series is allopregnanolone. To be noted: clinical studies.
For series [1] the following is noted: as much as.
The conditions of series [2]: in vivo.
Test in series [3]: not given
The source holds these as a separate data set.

Structures are written as SMILES.

On to `CC(=O)[C@H]1CC[C@H]2[C@@H]3CC[C@H]4C[C@@H](O)CC[C@]4(C)[C@H]3CC[C@]12C` [isopregnanolone], for which the “effect on potentiation of GABAA receptor function by allopregnanolone and alphaxalone” value with GABAA receptor was “inhibited”.
For the compound `CNCCC(Oc1ccc(C(F)(F)F)cc1)c1ccccc1` (centres unmarked) [Fluoxetine], the “brain and cerebrospinal fluid content of allopregnanolone” value in the series with allopregnanolone was “increase”.
As for `CCCC(C)(COC(N)=O)COC(N)=O` [MEPROBROMATE], in series [1], the “ingested amount with reported survival” value is reported as “much as 40 g”.
Turning to `COc1ccc2c3c1O[C@H]1[C@@H](O)CC[C@H]4[C@@H](C2)N(C)CC[C@@]341` [DIHYDROCODEINE], the “potency relative to codeine” value (in vivo) is recorded as “Dihydrocodeine is approximately twice as potent as codeine; this is”.
Consider `CCOC(=O)c1ncn2c1CN(C)C(=O)c1cc(F)ccc1-2` [flumazenil, ethyl 8-fluoro-5,6-dihydro-5-methyl-6-oxo-4H-imidazo-[1,5-a][1,4]benzodiazepine-3-carboxylate], for which the “modulation of the GABA evoked Cl-current” value with GABAA receptors (3 μM flumazenil, ethanol withdrawn cells) was “potentiates”.
With `CN1C(=O)CN=C(c2ccccc2)c2cc(Cl)ccc21` [diazepam], the “effect on the positive modulation of 3 μM flumazenil induced by ethanol withdrawal” value in the series on GABAA receptors (10 μM diazepam substituted for ethanol) is “negated the positive modulation”.
Turning to `N[C@@H]1C[C@H]1c1ccccc1` (racemic) [TRANYLCYPROMINE], in series [2], the “time in which the drug is excreted” value was 24 h.
As for `COc1cccc(C2(O)CCCCC2CN(C)C)c1` (centres unmarked) [TRAMADOL], the “potency relative to morphine” value (IV/IM route) is “Tramadol is approximately 10% as potent as morphine, when given”.
For the compound `CC(=O)[C@H]1CC[C@H]2[C@@H]3CC[C@@H]4C[C@@H](O)CC[C@]4(C)[C@H]3CC[C@]12C` [epipregnanolone], in the series on GABAA receptor, the “effect on potentiation of GABAA receptor function by allopregnanolone and alphaxalone” value is recorded as “inhibited”.
As to `C[C@]12C=CC(=O)N[C@@H]1CC[C@@H]1[C@@H]2CC[C@]2(C)[C@@H](C(=O)Nc3cc(C(F)(F)F)ccc3C(F)(F)F)CC[C@@H]12` [Dutasteride, (5α,17β)-N-{2,5 bis(trifluoromethyl)phenyl}-3-oxo-4-azaandrost-1-ene-17-carboxamide], in series [3] (daily doses of 5 mg, 60 subjects, 6 months), the “adverse effects compared with therapeutic dose of 0.5 mg” value is “subjects for 6 months with no additional adverse effects to those”. The safety concerns entry in series [3] (single doses up to 40 mg (80 times the therapeutic dose) for 7 days, volunteer studies) is given as “without significant safety concerns. In a clinical study, daily doses”.
